# From ChEMBL document CHEMBL1143690, “The effects of N-terminal part modification of arginine vasopressin analogues with 2-aminoindane-2-carboxylic acid: a highly potent V2 agonist” (J Med Chem, 2007)
# Calls of active or inactive are those of the source. The rule behind the calls is not given here. Positions of bridges follow the written chain, without caps; N, C: chain ends. Non-standard residues stand in square brackets, D forms with d. Residues, ends and D or L forms follow the SMILES beside them. Aic = NC1(C(=O)O)Cc2ccccc2C1
# Key:
# Rattus norvegicus [1] = assay: Antidiuretic activity in sc dosed conscious Wistar rat in an antidiuresis time of t1/2 200 mins relative to AVP; assay type: functional, Urine
# Rattus norvegicus [2] = organism: Rattus norvegicus; assay: In vitro uterotonic activity in Wistar rat oxytocic uterus in absence of Mg2+; assay type: functional; settings: for Kb: read-out: pA2 (converted)
# Rattus norvegicus [3] = organism: Rattus norvegicus; assay: Effect on arterial blood pressure in Wistar rat in pressor test; assay type: functional, organism-based; settings: for Kb: Rattus norvegicus, Wistar, Arterial blood, read-out: pA2 (converted)
# Rattus norvegicus [4] = assay: Antidiuretic activity in sc dosed conscious Wistar rat in an antidiuresis time of t1/2 200 mins relative to dDAVP; assay type: functional, Urine
# Rattus norvegicus [5] = assay: Antidiuretic activity in sc dosed conscious Wistar rat in an antidiuresis time of t1/2 60 mins relative to AVP; assay type: functional, Urine
# Rattus norvegicus [6] = assay: Antidiuretic activity in sc dosed conscious Wistar rat in an antidiuresis time of t1/2 60 mins relative to dDAVP; assay type: functional, Urine
Structure (SMILES),Activity (Rattus norvegicus [1]) [IU/mg],Kb (Rattus norvegicus [2]) [nM],Activity (Rattus norvegicus [4]) [%],Activity (Rattus norvegicus [5]) [IU/mg],Activity (Rattus norvegicus [6]) [%],Activity (Rattus norvegicus [3]),also measured
CC(C)[C@@H]1NC(=O)[C@H](Cc2ccccc2)NC(=O)C2(CCCCC2)NC(=O)CCSSC[C@@H](C(=O)N2CCC[C@H]2C(=O)N[C@H](CCCN=C(N)N)C(=O)NCC(N)=O)NC(=O)[C@H](CC(N)=O)NC1=O,50000,15.5,10,4500,50,–,Kb (Rattus norvegicus [3]): 724 nM
NC(=O)CC[C@@H]1NC(=O)[C@H](Cc2ccccc2)NC(=O)C2(Cc3ccccc3C2)NC(=O)CCSSC[C@@H](C(=O)N2CCC[C@H]2C(=O)N[C@H](CCCN=C(N)N)C(=O)NCC(N)=O)NC(=O)[C@H](CC(N)=O)NC1=O [listing 1 of 2 here],45000,–,10,450,10,–,–
NC(=O)CC[C@@H]1NC(=O)C2(Cc3ccccc3C2)NC(=O)[C@H](Cc2ccc(O)cc2)NC(=O)CCSSC[C@H](C(=O)N2CCC[C@H]2C(=O)N[C@@H](CCCN=C(N)N)C(=O)NCC(N)=O)NC(=O)[C@H](CC(N)=O)NC1=O,–,–,–,–,–,inactive,Activity (Rattus norvegicus [1]; Urine): inactive; Activity (Rattus norvegicus [2]): inactive; Activity (Rattus norvegicus [4]; Urine): inactive; Activity (Rattus norvegicus [5]; Urine): inactive; Activity (Rattus norvegicus [6]; Urine): inactive
CC(C)[C@@H]1NC(=O)[C@H](Cc2ccccc2)NC(=O)C2(Cc3ccccc3C2)NC(=O)[C@@H](N)CSSC[C@@H](C(=O)N2CCC[C@H]2C(=O)N[C@@H](CCCN=C(N)N)C(=O)NCC(N)=O)NC(=O)[C@H](CC(N)=O)NC1=O (H-C[Aic]FVNCPRG-NH2; disulfide 1-6) [listing 1 of 2 here],–,11.7,–,–,–,–,–
NC(=O)CC[C@@H]1NC(=O)[C@H](Cc2ccccc2)NC(=O)C2(Cc3ccccc3C2)NC(=O)[C@@H](N)CSSC[C@@H](C(=O)N2CCC[C@H]2C(=O)N[C@@H](CCCN=C(N)N)C(=O)NCC(N)=O)NC(=O)[C@H](CC(N)=O)NC1=O [listing 1 of 2 here],45000,–,10,450,10,9.4 IU/mg,–
NC(=O)CC[C@@H]1NC(=O)[C@H](Cc2ccccc2)NC(=O)C2(Cc3ccccc3C2)NC(=O)[C@@H](N)CSSC[C@@H](C(=O)N2CCC[C@H]2C(=O)N[C@H](CCCN=C(N)N)C(=O)NCC(N)=O)NC(=O)[C@H](CC(N)=O)NC1=O [listing 1 of 2 here],4500,–,1,45,1,0 IU/mg,–
CC(C)[C@@H]1NC(=O)[C@H](Cc2ccccc2)NC(=O)C2(Cc3ccccc3C2)NC(=O)CCSSC[C@@H](C(=O)N2CCC[C@H]2C(=O)N[C@H](CCCN=C(N)N)C(=O)NCC(N)=O)NC(=O)[C@H](CC(N)=O)NC1=O [listing 1 of 2 here],–,8.71,–,–,–,–,Kb (Rattus norvegicus [3]): 562 nM
NC(=O)CC[C@@H]1NC(=O)[C@H](Cc2ccccc2)NC(=O)C2(Cc3ccccc3C2)NC(=O)CCSSC[C@@H](C(=O)N2CCC[C@H]2C(=O)N[C@H](CCCN=C(N)N)C(=O)NCC(N)=O)NC(=O)[C@H](CC(N)=O)NC1=O [listing 2 of 2 here],–,49,–,–,–,–,Kb (Rattus norvegicus [3]): 2510 nM
CC(C)[C@@H]1NC(=O)[C@H](Cc2ccccc2)NC(=O)C2(Cc3ccccc3C2)NC(=O)[C@@H](N)CSSC[C@@H](C(=O)N2CCC[C@H]2C(=O)N[C@@H](CCCN=C(N)N)C(=O)NCC(N)=O)NC(=O)[C@H](CC(N)=O)NC1=O (H-C[Aic]FVNCPRG-NH2; disulfide 1-6) [listing 2 of 2 here],45000,–,10,450,10,0 IU/mg,–
NC(=O)CC[C@@H]1NC(=O)C2(Cc3ccccc3C2)NC(=O)[C@H](Cc2ccc(O)cc2)NC(=O)[C@H](N)CSSC[C@H](C(=O)N2CCC[C@H]2C(=O)N[C@H](CCCN=C(N)N)C(=O)NCC(N)=O)NC(=O)[C@H](CC(N)=O)NC1=O,–,–,–,–,–,inactive,Activity (Rattus norvegicus [1]; Urine): inactive; Activity (Rattus norvegicus [2]): inactive; Activity (Rattus norvegicus [4]; Urine): inactive; Activity (Rattus norvegicus [5]; Urine): inactive; Activity (Rattus norvegicus [6]; Urine): inactive
NC(=O)CC[C@@H]1NC(=O)[C@H](Cc2ccccc2)NC(=O)C2(Cc3ccccc3C2)NC(=O)[C@@H](N)CSSC[C@@H](C(=O)N2CCC[C@H]2C(=O)N[C@H](CCCN=C(N)N)C(=O)NCC(N)=O)NC(=O)[C@H](CC(N)=O)NC1=O [listing 2 of 2 here],–,138,–,–,–,–,–
NC(=O)CC[C@@H]1NC(=O)[C@H](Cc2ccccc2)NC(=O)C2(Cc3ccccc3C2)NC(=O)CCSSC[C@@H](C(=O)N2CCC[C@H]2C(=O)N[C@@H](CCCN=C(N)N)C(=O)NCC(N)=O)NC(=O)[C@H](CC(N)=O)NC1=O [listing 1 of 2 here],–,31.6,–,–,–,–,–
CC(C)[C@@H]1NC(=O)[C@H](Cc2ccccc2)NC(=O)C2(Cc3ccccc3C2)NC(=O)CCSSC[C@@H](C(=O)N2CCC[C@H]2C(=O)N[C@H](CCCN=C(N)N)C(=O)NCC(N)=O)NC(=O)[C@H](CC(N)=O)NC1=O [listing 2 of 2 here],450000,–,100,4500,50,–,–
NC(=O)CC[C@@H]1NC(=O)[C@H](Cc2ccccc2)NC(=O)C2(Cc3ccccc3C2)NC(=O)CCSSC[C@@H](C(=O)N2CCC[C@H]2C(=O)N[C@@H](CCCN=C(N)N)C(=O)NCC(N)=O)NC(=O)[C@H](CC(N)=O)NC1=O [listing 2 of 2 here],45000,–,10,450,10,5.3 IU/mg,–
NC(=O)CC[C@@H]1NC(=O)[C@H](Cc2ccccc2)NC(=O)C2(Cc3ccccc3C2)NC(=O)[C@@H](N)CSSC[C@@H](C(=O)N2CCC[C@H]2C(=O)N[C@@H](CCCN=C(N)N)C(=O)NCC(N)=O)NC(=O)[C@H](CC(N)=O)NC1=O [listing 2 of 2 here],–,53.7,–,–,–,–,–
NC(=O)CC[C@@H]1NC(=O)C2(Cc3ccccc3C2)NC(=O)[C@H](Cc2ccc(O)cc2)NC(=O)[C@H](N)CSSC[C@H](C(=O)N2CCC[C@H]2C(=O)N[C@@H](CCCN=C(N)N)C(=O)NCC(N)=O)NC(=O)[C@H](CC(N)=O)NC1=O,–,–,–,–,–,inactive,Activity (Rattus norvegicus [1]; Urine): inactive; Activity (Rattus norvegicus [2]): inactive; Activity (Rattus norvegicus [4]; Urine): inactive; Activity (Rattus norvegicus [5]; Urine): inactive; Activity (Rattus norvegicus [6]; Urine): inactive
